Data set [1] can be described thus: Equilibrium dialysis, binding to combination of PVP25 and beta-hydroxypropyl-cyclodextrin as sink compound. As to conditions: PVP 25 4% (m/V) + β-Hydroxypropyl-cyclodextrin 4% (m/V); membrane cut off 1 kDa; test compound 0.02 mM to 0.6 mM. The procedure:
(§1) A reusable 96-well Micro-Equilibrium dialysis Device 96 chamber was used for the following experiments. The chamber system consists of 10 Teflon™ bars, wherein semipermeable membranes (see 1.2 Membranes) were placed between two Teflon™ bars each to form two compartment of each well.
(§2) 2) The protein chamber (chamber 2) is filled with buffer and the other excipients to the final volume of approximately 100-150 ul. It is important that on each side the volume is exactly the same.
(§3) with PVP and PVP in combination with cyclodextrines as sink compound in chamber the volume was 100 μl. (PVP 15 4% (m/V), PVP 25 4% (m/V), PVP 25 4% (m/V)+β-Hydroxypropyl-cyclodextrin 4% (m/V))
(§4) 5) The chamber system was shaken for 1 hour, then incubated over night (approximately 12 hours). Long duration shaking should be avoided due to the risk of higher evaporation caused by the generated heat.
(§5) 6) After reaching the equilibrium, a sample from the sink chamber (reference, binding study II with sink compound and HSA), or from the protein chamber (reference, binding study I with sink compound alone) was transferred to a half-area UV-plate and analyzed spectrometrically (spectra max, 190 Plate Reader; 250-500 nm) or it was analysed by HPLC.

Data set [2] is described as follows: Equilibrium dialysis, excipient binding to gamma-cyclodextrin. As to conditions: γ-Cyclodextrin 2.5% (m/V); membrane cut off 1 kDa; Warfarin 0.01 mM to 0.4 mM; UV. As for the experimental part:
as §1, §2, §4, §5
In general terms: In equilibrium dialysis only unbound substance equilibrates across the membrane.

Data set [3] is described as follows: Equilibrium dialysis, binding to beta-hydroxypropyl-cyclodextrine as sink compound. As to conditions: membrane cut off 1 kDa; for fb(%) excipient binding level: Warfarin 0.01 mM to 0.4 mM, UV; for Average Binding [%] to beta-hydroxypropyl-cyclodextrine: beta-hydroxypropyl-cyclodextrine 10% (m/V), test compound 0.02 mM-0.06 mM, DMSO 6% (V/V). As for the experimental part:
A reusable 96-well Micro-Equilibrium dialysis Device 96 chamber was used for the following experiments. The chamber system consists of 10 Teflon™ bars, wherein semipermeable membranes (see 1.2 Membranes) were placed between two Teflon™ bars each to form two compartment of each well. 2) The protein chamber (chamber 2) is filled with buffer and the other excipients to the final volume of approximately 100-150 ul. […] 5) The chamber system was shaken for 1 hour, then incubated over night (approximately 12 hours). Long duration shaking should be avoided due to the risk of higher evaporation caused by the generated heat.

For data set [4], the system named is plasma protein. The settings on record: conventional methods, literature values; cited from earlier work.
Data set [5] deals with human serum albumin (HSA) (Homo sapiens, UniProt P02768). Kind of data set: Assay with PVP 25 (sink compound) and human serum albumin, new approach. It counts as in vitro ADME. As to conditions: pH 7.4, PVP 25 4.0% (m/V) as sink compound, HSA 60 mM, membrane MWCO 3.5 kDa, test compound 0.02 mM to 0.6 mM, HPLC; for fraction bound to HSA: read-out: fu (%) newApproach (binding level to HSA). The procedure: as §2
Chain of human serum albumin (HSA) (P02768 25-609): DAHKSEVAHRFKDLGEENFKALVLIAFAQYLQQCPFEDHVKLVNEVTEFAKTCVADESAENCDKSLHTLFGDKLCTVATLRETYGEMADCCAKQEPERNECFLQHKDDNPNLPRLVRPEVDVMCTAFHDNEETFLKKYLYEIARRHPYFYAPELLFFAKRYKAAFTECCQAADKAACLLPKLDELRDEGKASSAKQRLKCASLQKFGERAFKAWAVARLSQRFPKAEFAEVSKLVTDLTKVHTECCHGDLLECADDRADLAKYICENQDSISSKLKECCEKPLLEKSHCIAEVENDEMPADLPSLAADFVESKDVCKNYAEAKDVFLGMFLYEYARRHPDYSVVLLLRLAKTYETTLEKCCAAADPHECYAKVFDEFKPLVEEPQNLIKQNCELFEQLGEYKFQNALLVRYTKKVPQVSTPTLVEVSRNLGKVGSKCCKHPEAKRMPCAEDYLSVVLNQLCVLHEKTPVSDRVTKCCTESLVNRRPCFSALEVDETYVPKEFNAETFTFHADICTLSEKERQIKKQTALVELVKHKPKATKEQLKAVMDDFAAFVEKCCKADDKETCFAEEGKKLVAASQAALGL
End concentration of HSA: 60 mM
as §4, §5
The distribution coefficient and the binding constant can be calculated with binding studies. The binding of drugs to HSA is a reversible process which can be described by the following equilibrium [Du]+[HSA]·[D·HSA]
The binding constant KHSA can be converted to the fraction unbound fu with the following formula derived from the law of mass:
The binding constant to HSA (KHSA) (2) can be calculated from the combination of partition coefficients to PVP (DCPVP) (3) and to HSA in the presence of PVP (DCHSA′) (3). KHSA=DCPVP·DCHSA′ (2)
Vtotal is total volume in the dialysis chamber (200 μl) and VHSA and VPVP are the volumes of HSA and PVP 25, which can be calculated from the density and the weighted sample
Analytics was carried out on an HPLC-system (Agilent 1100). The separations were performed on a RP column (Chromolith flash, RP18e, 4.6×25 mm). Samples were eluted with gradient of water with 0.05% formic acid (A) and Acetonitril (B).

Data set [6] can be described thus: Equilibrium dialysis, binding to PVP 15. The settings on record: PVP 15 40 g/l; drugs 0.02-0.6 mM. As for the experimental part: as §1, §2, §3, §4, §5
(§6) Concentrations of the drugs: 0.02-0.6 mM
(§7) Amounts of PVP 15 and PVP25: each 40 g/l

The nature of data set [7]: Equilibrium dialysis, binding to PVP 25. As to conditions: PVP25 40 g/l; drugs 0.02-0.6 mM. As for the experimental part: as §1, §2, §3, §4, §5, §6, §7
For data set [8], the system named is plasma protein. Nature of the data set: Protein binding determined with conventional methods (literature values / inhouse). It counts as in vitro ADME. The settings on record: read-out: fu (%) Literature (binding level). The text has this: The determined binding levels of the test compound in example 6 (“new approach”) were compared with the values determined with conventional methods (literature values).

Here are results for 9 compounds from patent US8778617B2, “Method for determining the binding constant of high affinity compounds” (Hoffmann-La Roche Inc., priority 2010, dated 2014).

As to `CC(=O)CC(c1ccccc1)c1c(O)c2ccccc2oc1=O` (racemic) [Warfarin, (RS)-4-hydroxy-3-(3-oxo-1-phenylbutyl)-2H-chromen-2-one], the “fb(%) excipient binding level” value in data set [1] was determined as 27.9%; in data set [2], 6.0%; in data set [3] (β-Hydroxypropyl-cyclodextrin 1% (m/V)), 6.8%; in data set [3] (β-Hydroxypropyl-cyclodextrin 10% (m/V)) it was 27.6%.

`NC(=O)N1c2ccccc2C=Cc2ccccc21` [Carbamazepin]: the “Average Binding [%] to beta-hydroxypropyl-cyclodextrine” value in data set [3] stood at 31.3%.

`CO/N=C(\C(=O)N[C@@H]1C(=O)N2C(C(=O)O)=C(CSc3nc(=O)c(=O)[nH]n3C)CS[C@H]12)c1csc(N)n1` [Ceftriaxone]: the “Average Binding [%] to beta-hydroxypropyl-cyclodextrine” value in data set [3] was determined as 14.2%.

`CN(C)CCCN1c2ccccc2Sc2ccc(Cl)cc21` [Chlorpromazine, 3-(2-chloro-10H-phenothiazin-10-yl)-N,N-dimethyl-propan-1-amine]: the “fu (%) Literature (binding level)” value with plasma protein [4] is recorded as 97.80%. In data set [5], the fraction bound to HSA is 0.994.

Take `O=C(O)Cc1ccccc1Nc1c(Cl)cccc1Cl` [Diclofenac, 2-(2-(2,6-dichlorophenylamino)phenyl)acetic acid]: the “Average binding [%] to PVP15” value in data set [6] came out at 21.7%. Also, the “Average Binding [%] to beta-hydroxypropyl-cyclodextrine” value in data set [3] worked out at 23.1%. In addition, in data set [7], the “Average binding [%] to PVP25” value turned out to be 46.4%.

As for `NS(=O)(=O)c1cc(C(=O)O)c(NCc2ccco2)cc1Cl` [Furosemid, 4-chloro-2-(furan-2-ylmethylamino)-5-sulfamoylbenzoic acid], in data set [6], the “Average binding [%] to PVP15” value worked out at 37.0%. The “Average binding [%] to PVP25” value in data set [7] was 49.4%.

In the case of `COc1ccc(Cl)cc1C(=O)NCCc1ccc(S(=O)(=O)NC(=O)NC2CCCCC2)cc1` [Glibenclamid, 5-chloro-N-(4-[N-(cyclohexylcarbamoyl)sulfamoyl]phenethyl)-2-methoxybenzamide], the fraction bound to HSA in data set [5] came out at 1. Besides, the fraction bound with plasma protein [8] turned out to be 0.997.

As to `CN1/C(=C(/O)Nc2ccccn2)C(=O)c2ccccc2S1(=O)=O` [Piroxicame, (8E)-8-[hydroxy-(pyridin-2-ylamino)methylidene]-9-methyl-10,10-dioxo-10λ6-thia-9-azabicyclo[4.4.0]deca-1,3,5-trien-7-one], the “fu (%) Literature (binding level)” value with plasma protein [4] is 99.0%. Also, the fraction bound in data set [5] amounted to 99.6%.

As for `C=C[C@H]1C[N@@]2CC[C@H]1C[C@H]2[C@H](O)c1ccnc2ccc(OC)cc12` [Quinine], in data set [3], the “Average Binding [%] to beta-hydroxypropyl-cyclodextrine” value is recorded as 21.6%.
